From publication PMC11093748, “De novo identification of CD4^+ T cell epitopes” (Nature Methods, 2024)

Legend:
Format in all cases: cell-based, human
[1] = tested on: Jurkat cells, No TCR; assay: Single SABR-II co-incubation, background without TCR
How it was run: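 Single SABR-II constructs for putative cognate epitopes were expressed in CellTrace Violet-labelled NFAT–GFP Jurkat cells and co-incubated 1:1 (5 × 10^5 each) with TCR-expressing Jurkat cells for 16–20 h. GFP (with CD69 staining when indicated) was measured by flow cytometry. Wells with GFP above the no-TCR control were scored positive.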

[2] = tested on: GSE.6H9 TCR; assay: Single SABR-II co-incubation, NFAT-GFP Jurkat (HLA-DQ8); settings: HLA-DQ8 SABR-II
Text: (§1) We have previously described SABRs, which are chimeric receptors containing an extracellular pMHC complex attached to an intracellular CD28-CD3ζ signaling domain. […] We sought to expand this platform to allow antigen discovery for MHC/HLA-II with seamless integration with class I alleles. Here, we created SABRs to present epitopes in MHC-II alleles, by covalently linking the epitope to the β-chain of MHC-II that is attached to the CD28-CD3ζ signaling domains downstream, along with a 2A peptide-linked MHC-II α-chain (Fig. 1a,b). To test whether SABR-IIs could present epitopes to TCRs and induce a signal, we expressed them using lentiviral vectors in NFAT–GFP Jurkat cells, which express green fluorescent protein (GFP) upon NFAT activation and translocation downstream of CD3ζ activation (a kind gift from Y. Chen and A. Weiss). We constructed murine SABR-IIs presenting epitopes in I-Ab, I-Ad and I-Ag7 (Ova, […][41]; ATEG, […][42]; and 2.5mimo, […][43], respectively). We co-incubated the SABR-II-expressing NFAT–GFP Jurkat cells with a separate population of Jurkat cells expressing either the BDC2.5 TCR (recognizes I-Ag7-2.5mimo), OT-II TCR (recognizes I-Ab-Ova), 5-4-E8 TCR (recognizes I-Ad-ATEG) or no TCR. […] The signal from the NFAT–GFP reporter offered minimal background in absence of a cognate TCR and correlated with surface SABR expression in the presence of a cognate TCR (Extended Data Fig. 1c–e). […] We confirmed the ability of the DQ8-InsB9:23 SABR-II to present the epitope to two previously described, T1D patient-derived TCRs GSE.6H9 and GSE.20D11 (ref. [46]).
(§2) For SABR library screens, 3 × 10^6 NFAT–GFP Jurkat cells expressing the SABR library were labeled with CellTrace Violet (BioLegend) according to the manufacturer’s protocol before incubation with 3 × 10^6 Jurkat cells expressing the TCR of interest. These mixtures were incubated in a six-well plate for 16–20 h. Cells were stained with anti-CD69-APC-Cy7 where indicated (BioLegend) and the top 1–2% of GFP^+CD69^+ cells were sorted for genomic DNA extraction, indexing and sequencing (see below). Multiplexed assays were scaled on a per-TCR basis (for example 3 × 10^6 for each of three TCRs against 9 × 10^6 library cells). For single SABR assays, unless otherwise defined, 5 × 10^5 SABR expressing NFAT–GFP Jurkat cells (or 5KC cells) were labeled with CellTrace Violet (BioLegend) according to the manufacturer’s protocol before incubation with 5 × 10^5 TCR-expressing Jurkat cells (or 5KC cells) in a round-bottom 96-well plate for 16–20 h. Cells were stained with anti-CD69-APC-Cy7 when indicated and acquired on the Attune NxT flow cytometer (Thermo Fisher Scientific). All flow analysis was performed using FlowJo (BD). For Daudi cell co-culture, 1 × 10^6 Jurkat cells expressing the TCR of interest were incubated with 1 × 10^6 Daudi cells expressing a SABR of interest for 3 days. On day 3, cells were labeled with anti-RT1B-PE and anti-Fas-APC-Cy7 before being acquired on the Attune NxT flow cytometer.

[3] = tested on: GSE.20D11 TCR; assay: as above; settings: HLA-DQ8 SABR-II
Text: as §1, §2

[4] = No TCR, Fig 3B, 18 h, biological replicate 1
[5] = No TCR, Fig 3B, 18 h, biological replicate 2
[6] = No TCR, Fig 3B, 18 h, biological replicate 3
[7] = No TCR, Fig 4B, technical replicate 1
[8] = No TCR, Fig 4B, technical replicate 2

LQTLALNAARDP
%GFP+CD69+ cells of SABR-NFAT-GFP-Jurkat cells ([1]; No TCR, Ext. Data Fig. 6C, 18-20 hr, technical replicate 1): 3.08% | %GFP+CD69+ cells of SABR-NFAT-GFP-Jurkat cells ([1]; No TCR, Ext. Data Fig. 6C, 18-20 hr, technical replicate 2): 3.07% | %GFP+CD69+ cells of SABR-NFAT-GFP-Jurkat cells [1, 4]: 2.51% | %GFP+CD69+ cells of SABR-NFAT-GFP-Jurkat cells [1, 5]: 6.93% | %GFP+CD69+ cells of SABR-NFAT-GFP-Jurkat cells [1, 6]: 3.6% | %GFP+CD69+ cells of SABR-NFAT-GFP-Jurkat cells [1, 7]: 1.39% | %GFP+CD69+ cells of SABR-NFAT-GFP-Jurkat cells [1, 8]: 1.36% | %GFP+CD69+ cells of SABR-NFAT-GFP-Jurkat cells ([1]; No TCR, Fig 5C, technical replicate 1): 0.73% | %GFP+CD69+ cells of SABR-NFAT-GFP-Jurkat cells ([1]; No TCR, Fig 5C, technical replicate 2): 0.75%

SHLVEALYLVCGERG
%GFP+CD69+ cells of SABR-NFAT-GFP-Jurkat cells ([1]; Mock TCR, Fig 4B, technical replicate 1): 3.46% | %GFP+CD69+ cells of SABR-NFAT-GFP-Jurkat cells ([1]; Mock TCR, Fig 4B, technical replicate 2): 3.03% | %GFP+CD69+ cells of SABR-NFAT-GFP-Jurkat cells [1, 4]: 2% | %GFP+CD69+ cells of SABR-NFAT-GFP-Jurkat cells [1, 5]: 3.5% | %GFP+CD69+ cells of SABR-NFAT-GFP-Jurkat cells [1, 6]: 1.84% | %GFP+CD69+ cells of SABR-NFAT-GFP-Jurkat cells [1, 7]: 0.93% | %GFP+CD69+ cells of SABR-NFAT-GFP-Jurkat cells [1, 8]: 1.04% | %GFP+CD69+ cells of SABR-NFAT-GFP-Jurkat cells ([1]; No TCR, Fig 4B, technical replicate 3): 1.2% | frequency of GFP+CD69+ cells (in words) [2]: high frequency of GFP^+CD69^+ cells | frequency of GFP+CD69+ cells (in words) [3]: high frequency of GFP^+CD69^+ cells
